Publication PMC5992111, “Heterocyclization of polarized system: synthesis, antioxidant and anti-inflammatory 4-(pyridin-3-yl)-6-(thiophen-2-yl) pyrimidine-2-thiol derivatives” (Chemistry Central Journal, 2018)
Marks after values point to notes of the source that are not given here.

What was measured:
[1] = system: carrageenan induced rat paw edema; test: Carrageenan induced rat paw edema; format: in vivo; conditions: mean ± SD
Procedure: Carrageenan induced rat paw edema in rats: Fifty rats were divided into ten groups (i.e., each group, five rats). The first group (control), received carboxymethyl cellulose. The second group was given diclofenac sodium as a standard anti-inflammatory drug. Groups (3–10) were orally given the newly synthesized compounds (3–6) in two dosages (5 and 10 mg/kg). Results were expressed as rat paw edema percent. One hour later after administration of tested doses, carrageenan was injected sub planter in the left hind footpad of each rat as 0.05 ml of 1% solution in sterile distilled water. Plethysmometer was used to measure paw edema volume from 0 to 4 h after carrageenan injection. Paw edema volume was compared with vehicle control group and reduction percent was calculated as the following %reduction in edema=1-Vt Vc×100 Where Vt and Vc are the edema volume in the group treated with drug and control, respectively. Results were expressed as mean ± standard deviation (SD). Differences between means were tested for significance using a one-way analysis of variance (ANOVA) followed by Duncan’s test (Table 2).

[2] = biological target: T1, ovine COX-1 (Ovis aries, UniProt P05979); test: In vitro COX-1 inhibition, colorimetric ovine COX-1/COX-2 inhibitor screening assay kit; format: biochemical; conditions: for IC50: means of three determinations, read at 590 nm, read-out: IC 50 (µM) COX-1; for inhibitory activity against COX-1 (in words): compared with the standard drug celecoxib
T1 construct: purchased
T1 sequence (P05979 25-600): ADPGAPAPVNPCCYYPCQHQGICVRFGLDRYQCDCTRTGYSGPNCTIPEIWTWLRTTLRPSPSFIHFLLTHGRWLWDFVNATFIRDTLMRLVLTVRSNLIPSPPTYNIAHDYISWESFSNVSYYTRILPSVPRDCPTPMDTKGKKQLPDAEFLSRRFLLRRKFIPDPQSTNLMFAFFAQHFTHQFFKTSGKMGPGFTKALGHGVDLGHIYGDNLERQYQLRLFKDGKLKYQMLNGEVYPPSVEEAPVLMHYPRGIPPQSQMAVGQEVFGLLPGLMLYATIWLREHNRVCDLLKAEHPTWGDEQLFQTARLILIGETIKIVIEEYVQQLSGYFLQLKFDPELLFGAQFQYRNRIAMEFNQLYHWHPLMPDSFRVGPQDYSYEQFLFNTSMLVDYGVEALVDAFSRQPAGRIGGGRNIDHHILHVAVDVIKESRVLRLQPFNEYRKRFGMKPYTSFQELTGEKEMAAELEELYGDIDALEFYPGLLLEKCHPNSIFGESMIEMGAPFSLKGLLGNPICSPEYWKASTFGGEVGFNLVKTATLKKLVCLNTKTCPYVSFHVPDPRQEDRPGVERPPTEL

[3] = DPPH free radical scavenging assay; conditions: for scavenging activity towards the DPPH radicals (in words): compared with ascorbic acid
Procedure: • DPPH free radical scavenging assay was determined (4). Ascorbic acid was used as reference standard antioxidant.

[4] = system: lipid peroxidation; test: Lipid peroxidation assay
Procedure: • Lipid peroxidation assay (5 and 6) was calculated as IC50 and recorded in Table 3.

[5] = biological target: T2, ovine COX-2 (Ovis aries, UniProt P79208); test: In vitro COX-2 inhibition, colorimetric ovine COX-1/COX-2 inhibitor screening assay kit; format: biochemical; conditions: for COX-1/COX-2 selectivity index: IC50 (COX-1)/IC50 (COX-2); for IC50: means of three determinations, read at 590 nm, read-out: IC 50 (µM) COX-2; for inhibitory activity against COX-2 (in words): compared with the standard drug celecoxib
T2 construct: purchased
T2 sequence (P79208 17-603): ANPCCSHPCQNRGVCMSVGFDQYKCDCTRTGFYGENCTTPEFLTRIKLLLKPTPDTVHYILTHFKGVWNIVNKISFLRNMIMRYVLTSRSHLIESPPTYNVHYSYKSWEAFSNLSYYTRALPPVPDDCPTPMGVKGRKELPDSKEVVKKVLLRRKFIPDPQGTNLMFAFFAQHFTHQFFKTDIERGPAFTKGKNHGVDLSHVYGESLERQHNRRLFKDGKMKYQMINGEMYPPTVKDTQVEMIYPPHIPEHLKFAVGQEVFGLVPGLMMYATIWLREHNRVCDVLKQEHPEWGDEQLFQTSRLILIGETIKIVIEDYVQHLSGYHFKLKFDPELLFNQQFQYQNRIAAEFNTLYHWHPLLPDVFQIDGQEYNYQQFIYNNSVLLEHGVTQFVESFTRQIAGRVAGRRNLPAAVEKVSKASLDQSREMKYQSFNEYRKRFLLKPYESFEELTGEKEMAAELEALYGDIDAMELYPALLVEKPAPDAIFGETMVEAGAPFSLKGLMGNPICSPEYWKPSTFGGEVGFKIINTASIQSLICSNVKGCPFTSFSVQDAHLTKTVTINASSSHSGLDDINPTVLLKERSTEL

[6] = 5 mg/kg.b.wt oral, 0 h after carrageenan
[7] = 5 mg/kg.b.wt oral, 1 h after carrageenan
[8] = 5 mg/kg.b.wt oral, 2 h after carrageenan
[9] = 5 mg/kg.b.wt oral, 3 h after carrageenan
[10] = 5 mg/kg.b.wt oral, 4 h after carrageenan
[11] = 10 mg/kg.b.wt oral, 0 h after carrageenan
[12] = 10 mg/kg.b.wt oral, 1 h after carrageenan
[13] = 10 mg/kg.b.wt oral, 2 h after carrageenan
[14] = 10 mg/kg.b.wt oral, 3 h after carrageenan
[15] = 10 mg/kg.b.wt oral, 4 h after carrageenan

Structure (SMILES)	melting point [°C]	IC50 [2] [µM]	Inhibition percent of rat paw edema [1, 6]	Inhibition percent of rat paw edema [1, 7]	Inhibition percent of rat paw edema [1, 8]	Inhibition percent of rat paw edema [1, 9]	Inhibition percent of rat paw edema [1, 10]	Inhibition percent of rat paw edema [1, 11]	Inhibition percent of rat paw edema [1, 12]	Inhibition percent of rat paw edema [1, 13]	Inhibition percent of rat paw edema [1, 14]	Inhibition percent of rat paw edema [1, 15]	IC50 (μg/ml) for DPPH Scavenging [3] [µg/mL]	IC50 (μg/ml) for anti-lipid peroxidation [4] [µg/mL]	COX-1/COX-2 selectivity index [5]	IC50 [5] [µM]	further results
O=C(O)Cc1ccccc1Nc1c(Cl)cccc1Cl [Diclofenac sodium, diclofenac sodium, reference compound]	–	–	–	–	–	–	–	–	–	–	–	–	–	–	–	–	Inhibition percent of rat paw edema ([1]; standard drug, dose not given, 0 h after carrageenan): 0.49 ± 0.032^a %; Inhibition percent of rat paw edema ([1]; standard drug, dose not given, 1 h after carrageenan): 30.22 ± 1.27^a %; Inhibition percent of rat paw edema ([1]; standard drug, dose not given, 2 h after carrageenan): 33.85 ± 1.19^a %; Inhibition percent of rat paw edema ([1]; standard drug, dose not given, 3 h after carrageenan): 36.21 ± 0.93^a %; Inhibition percent of rat paw edema ([1]; standard drug, dose not given, 4 h after carrageenan): 41.10 ± 3.98^a %
CC1=NN(c2nc(-c3cccnc3)cc(-c3cccs3)n2)C(=O)C1 [Compound 9, 3-methyl-1-(4-(pyridin-3-yl)-6-(thiophen-2-yl)pyrimidin-2-yl)-1H-pyrazol-5(4H)-one]	225 to 227	–	–	–	–	–	–	–	–	–	–	–	–	–	–	–	–
O=C(/C=C/c1cccs1)c1cccnc1 [Compound 3, (E)-1-(pyridin-3-yl)-3-(thiophen-2-yl) prop-2-en-1-one]	256 to 258	3.7	0.48 ± 0.027^ab %	21.72 ± 0.79^b %	22.79 ± 1.07^d %	24.79 ± 0.49^c %	28.41 ± 1.30^c %	0.47 ± 0.04^ab %	31.98 ± 9.35^a %	29.93 ± 1.43^b %	34.16 ± 0.61^b %	41.15 ± 0.750^a %	10.72 ± 0.54	16.81 ± 2.71	9.49	0.39	scavenging activity towards the DPPH radicals (in words) [3]: higher scavenging activity towards the DPPH radicals than that of ascorbic acid
N#Cc1c(-c2cccs2)cc(-c2cccnc2)oc1=O [Compound 6, 2-oxo-6-(pyridin-3-yl)-4-(thiophen-2-yl)-2H-pyran-3-carbonitrile]	210 to 212	4.95	0.50 ± 0.02^a %	9.61 ± 1.12^e %	12.28 ± 1.38^h %	17.19 ± 1.26^e %	18.51 ± 2.26^e %	0.49 ± 0.01^a %	13.75 ± 1.15^de %	17.52 ± 1.13^f %	20.43 ± 0.65^d %	22.39 ± 1.16^d %	15.26 ± 0.44	22.67 ± 3.51	5.89	0.84	inhibitory activity against COX-1 (in words) [2]: nearly like that of the standard drug; inhibitory activity against COX-2 (in words) [5]: nearly like that of the standard drug
Cc1cc(=O)oc2c1c(C)nn2-c1nc(-c2cccnc2)cc(-c2cccs2)n1 [Compound 8, 3,4-dimethyl-1-(4-(pyridin-3-yl)-6-(thiophen-2-yl)pyrimidin-2-yl)pyrano[2,3-c]pyrazol-6(1H)-one]	190 to 192	–	–	–	–	–	–	–	–	–	–	–	–	–	–	–	–
NNc1nc(-c2cccnc2)cc(-c2cccs2)n1 [Compound 5, 1-(4-(pyridin-3-yl)-6-(thiophen-2-yl)pyrimidin-2-yl)hydrazine]	180 to 182	4.6	0.49 ± 0.01^a %	11.62 ± 1.24^de %	14.61 ± 1.81^g %	18.41 ± 1^e %	19.48 ± 0.89^e %	0.48 ± 0.01^ab %	15.41 ± 0.83^cd %	18.83 ± 0.75^ef %	24.19 ± 1.59^c %	28.59 ± 2.26^c %	14.61 ± 0.72	23.62 ± 2.31	5.29	0.87	inhibitory activity against COX-1 (in words) [2]: nearly like that of the standard drug; inhibitory activity against COX-2 (in words) [5]: nearly like that of the standard drug
O=C1O[C@H]([C@@H](O)CO)C(O)=C1O [Ascorbic acid, reference compound]	–	–	–	–	–	–	–	–	–	–	–	–	13.71 ± 0.75	25.72 ± 1.23	–	–	–
S=c1nc(-c2cccnc2)cc(-c2cccs2)[nH]1 [Compound 4, 4-(pyridin-3-yl)-6-(thiophen-2-yl) pyrimidine-2(1H)-thione]	220 to 225	4.02	0.46 ± 0.03^b %	18.91 ± 1.19^bc %	20.07 ± 1.43^e %	21.96 ± 1.25^d %	27.38 ± 1.68^c %	0.49 ± 0.01^ab %	21.43 ± 0.96^b %	26.27 ± 49^e %	33.13 ± 2.64^b %	37.15 ± 0.69^b %	12.64 ± 0.41	22.53 ± 3.25	9.13	0.44	scavenging activity towards the DPPH radicals (in words) [3]: higher scavenging activity towards the DPPH radicals than that of ascorbic acid
